Assays:
Test in all cases: KinaseProfiler Assay
TrkB = TrkB (Homo sapiens, UniProt Q16620)
CDK6/cyclinD3 = CDK6/cyclinD3 (Homo sapiens, UniProt Q00534)
EphA8 = biological target: T1, EphA8 (Homo sapiens, UniProt P29322)
T1 sequence (P29322 28-1005): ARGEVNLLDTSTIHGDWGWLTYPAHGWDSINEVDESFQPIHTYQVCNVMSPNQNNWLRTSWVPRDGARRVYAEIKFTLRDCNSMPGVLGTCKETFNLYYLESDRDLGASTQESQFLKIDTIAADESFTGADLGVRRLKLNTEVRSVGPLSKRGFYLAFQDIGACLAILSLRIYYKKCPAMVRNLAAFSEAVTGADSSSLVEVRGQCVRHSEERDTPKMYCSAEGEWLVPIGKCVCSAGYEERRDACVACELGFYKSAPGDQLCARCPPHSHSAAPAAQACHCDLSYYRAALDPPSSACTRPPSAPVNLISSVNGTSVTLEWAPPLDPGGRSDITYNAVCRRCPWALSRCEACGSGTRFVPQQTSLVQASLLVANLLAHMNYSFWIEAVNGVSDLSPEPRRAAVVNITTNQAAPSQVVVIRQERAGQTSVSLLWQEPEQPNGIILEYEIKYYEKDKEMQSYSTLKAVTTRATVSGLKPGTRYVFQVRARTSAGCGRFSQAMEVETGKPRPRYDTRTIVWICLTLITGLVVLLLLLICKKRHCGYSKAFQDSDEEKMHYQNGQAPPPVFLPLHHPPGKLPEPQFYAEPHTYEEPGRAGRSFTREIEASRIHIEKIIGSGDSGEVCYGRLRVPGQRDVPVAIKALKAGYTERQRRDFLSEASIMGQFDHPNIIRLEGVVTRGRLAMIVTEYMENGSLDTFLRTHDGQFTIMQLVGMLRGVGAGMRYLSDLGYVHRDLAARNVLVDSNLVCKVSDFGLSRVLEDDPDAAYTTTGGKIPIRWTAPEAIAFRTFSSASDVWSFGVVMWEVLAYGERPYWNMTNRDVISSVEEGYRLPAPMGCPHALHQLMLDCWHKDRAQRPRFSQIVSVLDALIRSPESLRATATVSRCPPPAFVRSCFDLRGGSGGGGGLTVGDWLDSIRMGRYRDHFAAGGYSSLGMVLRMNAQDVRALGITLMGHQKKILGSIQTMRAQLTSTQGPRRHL

Fer = Fer (Homo sapiens, UniProt P16591)
Sequence of Fer (P16591 whole entry): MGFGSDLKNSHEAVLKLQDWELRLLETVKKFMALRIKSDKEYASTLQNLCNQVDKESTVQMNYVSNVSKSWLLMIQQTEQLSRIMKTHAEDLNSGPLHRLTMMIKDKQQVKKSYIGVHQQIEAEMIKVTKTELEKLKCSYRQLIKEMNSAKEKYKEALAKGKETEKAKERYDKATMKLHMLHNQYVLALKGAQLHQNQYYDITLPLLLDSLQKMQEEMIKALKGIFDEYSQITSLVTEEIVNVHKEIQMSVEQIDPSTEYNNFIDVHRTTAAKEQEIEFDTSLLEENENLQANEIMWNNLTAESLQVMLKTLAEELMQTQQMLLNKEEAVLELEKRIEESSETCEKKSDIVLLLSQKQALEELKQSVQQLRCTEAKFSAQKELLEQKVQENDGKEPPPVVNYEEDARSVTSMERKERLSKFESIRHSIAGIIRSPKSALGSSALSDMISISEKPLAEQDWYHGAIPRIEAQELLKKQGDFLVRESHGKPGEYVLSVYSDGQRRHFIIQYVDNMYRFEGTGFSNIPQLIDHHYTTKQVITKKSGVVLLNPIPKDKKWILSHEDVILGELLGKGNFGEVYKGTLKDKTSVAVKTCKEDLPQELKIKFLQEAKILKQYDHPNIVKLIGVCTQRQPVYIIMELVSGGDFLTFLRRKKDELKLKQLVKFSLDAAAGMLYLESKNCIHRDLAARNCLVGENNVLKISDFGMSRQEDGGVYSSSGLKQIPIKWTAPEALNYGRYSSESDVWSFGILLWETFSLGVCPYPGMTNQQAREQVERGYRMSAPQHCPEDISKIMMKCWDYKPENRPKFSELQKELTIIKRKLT

TSSK2 = biological target: T2, TSSK2 (Homo sapiens, UniProt Q96PF2)
T2 sequence (Q96PF2 1-358): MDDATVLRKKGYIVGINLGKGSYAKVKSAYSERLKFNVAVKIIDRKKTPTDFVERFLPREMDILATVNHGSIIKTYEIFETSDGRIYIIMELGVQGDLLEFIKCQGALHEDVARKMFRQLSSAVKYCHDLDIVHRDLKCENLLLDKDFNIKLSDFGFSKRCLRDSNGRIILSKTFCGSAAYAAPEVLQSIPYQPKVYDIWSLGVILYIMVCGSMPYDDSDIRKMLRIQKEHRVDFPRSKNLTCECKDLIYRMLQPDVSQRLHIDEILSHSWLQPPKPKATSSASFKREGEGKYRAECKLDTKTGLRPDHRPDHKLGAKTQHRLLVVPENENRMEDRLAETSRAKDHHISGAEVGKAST

Syk = Syk (Homo sapiens, UniProt P43405)
CK1δ = CK1δ (Homo sapiens, UniProt P48730)
Sequence of CK1δ (P48730 whole entry): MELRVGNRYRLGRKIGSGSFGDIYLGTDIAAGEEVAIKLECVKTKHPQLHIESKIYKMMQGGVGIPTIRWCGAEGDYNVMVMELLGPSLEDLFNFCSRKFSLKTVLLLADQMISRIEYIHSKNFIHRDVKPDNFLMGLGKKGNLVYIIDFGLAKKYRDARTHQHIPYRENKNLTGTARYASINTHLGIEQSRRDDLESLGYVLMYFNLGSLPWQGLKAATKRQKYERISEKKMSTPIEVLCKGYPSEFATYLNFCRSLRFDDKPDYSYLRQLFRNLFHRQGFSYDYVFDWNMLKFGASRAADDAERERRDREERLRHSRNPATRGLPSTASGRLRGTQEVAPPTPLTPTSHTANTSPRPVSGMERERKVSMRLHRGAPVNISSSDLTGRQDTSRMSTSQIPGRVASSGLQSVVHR

MSK2 = MSK2 (Homo sapiens, UniProt O75676)
Sequence of MSK2 (O75676 whole entry): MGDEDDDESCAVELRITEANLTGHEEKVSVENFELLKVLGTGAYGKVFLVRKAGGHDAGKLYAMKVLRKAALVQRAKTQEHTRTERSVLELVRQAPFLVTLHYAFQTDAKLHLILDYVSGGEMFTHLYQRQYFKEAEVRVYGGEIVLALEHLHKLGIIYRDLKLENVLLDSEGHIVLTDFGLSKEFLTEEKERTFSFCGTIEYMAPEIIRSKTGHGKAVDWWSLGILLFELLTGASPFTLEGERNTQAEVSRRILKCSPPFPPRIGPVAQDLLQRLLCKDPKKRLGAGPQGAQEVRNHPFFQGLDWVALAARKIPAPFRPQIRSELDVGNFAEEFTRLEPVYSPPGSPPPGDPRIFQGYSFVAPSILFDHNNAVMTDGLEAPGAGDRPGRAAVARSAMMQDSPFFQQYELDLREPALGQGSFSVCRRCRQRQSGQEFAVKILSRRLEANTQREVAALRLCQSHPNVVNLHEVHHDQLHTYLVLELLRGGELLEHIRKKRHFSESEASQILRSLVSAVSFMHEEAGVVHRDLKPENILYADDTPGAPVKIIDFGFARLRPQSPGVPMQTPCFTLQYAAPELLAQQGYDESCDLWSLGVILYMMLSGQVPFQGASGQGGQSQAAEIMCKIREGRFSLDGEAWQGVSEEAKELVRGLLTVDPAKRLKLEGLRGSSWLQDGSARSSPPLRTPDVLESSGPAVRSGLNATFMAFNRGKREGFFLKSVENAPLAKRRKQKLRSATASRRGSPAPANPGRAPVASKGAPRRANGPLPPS

PKBα = PKBα (Homo sapiens, UniProt P31749)
Sequence of PKBα (P31749 whole entry): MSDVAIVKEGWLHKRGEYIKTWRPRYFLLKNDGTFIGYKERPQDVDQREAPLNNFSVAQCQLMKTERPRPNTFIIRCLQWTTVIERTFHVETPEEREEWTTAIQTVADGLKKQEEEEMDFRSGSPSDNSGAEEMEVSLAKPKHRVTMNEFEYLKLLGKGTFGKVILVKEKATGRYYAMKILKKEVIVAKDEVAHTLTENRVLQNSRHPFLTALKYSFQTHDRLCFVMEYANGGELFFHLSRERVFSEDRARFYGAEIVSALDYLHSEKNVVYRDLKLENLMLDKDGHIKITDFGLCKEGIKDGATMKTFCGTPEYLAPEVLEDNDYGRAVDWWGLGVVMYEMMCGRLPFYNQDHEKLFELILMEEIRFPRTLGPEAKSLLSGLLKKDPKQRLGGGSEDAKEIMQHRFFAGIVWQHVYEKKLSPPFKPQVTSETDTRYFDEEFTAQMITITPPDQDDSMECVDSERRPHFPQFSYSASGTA

Ros = Ros (Homo sapiens, UniProt P08922)
Lyn = test system: Lyn
PKA = PKA (Homo sapiens, UniProt P17612)
IR = IR (Homo sapiens, UniProt P06213)
CK1γ3 = CK1γ3 (Homo sapiens, UniProt Q9Y6M4)
Sequence of CK1γ3 (Q9Y6M4 whole entry): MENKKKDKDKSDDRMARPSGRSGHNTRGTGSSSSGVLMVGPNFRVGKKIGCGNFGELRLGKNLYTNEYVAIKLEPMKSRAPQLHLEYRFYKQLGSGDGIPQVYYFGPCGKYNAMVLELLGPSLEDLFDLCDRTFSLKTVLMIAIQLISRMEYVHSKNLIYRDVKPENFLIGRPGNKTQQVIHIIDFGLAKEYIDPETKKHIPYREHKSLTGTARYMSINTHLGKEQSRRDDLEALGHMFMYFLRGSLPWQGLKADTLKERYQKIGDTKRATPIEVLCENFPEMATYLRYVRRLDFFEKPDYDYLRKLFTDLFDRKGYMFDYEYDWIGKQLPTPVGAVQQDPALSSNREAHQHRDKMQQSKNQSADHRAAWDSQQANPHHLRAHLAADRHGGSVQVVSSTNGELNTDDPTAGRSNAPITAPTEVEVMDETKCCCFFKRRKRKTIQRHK

Sequence of TrkB (Q16620 32-822): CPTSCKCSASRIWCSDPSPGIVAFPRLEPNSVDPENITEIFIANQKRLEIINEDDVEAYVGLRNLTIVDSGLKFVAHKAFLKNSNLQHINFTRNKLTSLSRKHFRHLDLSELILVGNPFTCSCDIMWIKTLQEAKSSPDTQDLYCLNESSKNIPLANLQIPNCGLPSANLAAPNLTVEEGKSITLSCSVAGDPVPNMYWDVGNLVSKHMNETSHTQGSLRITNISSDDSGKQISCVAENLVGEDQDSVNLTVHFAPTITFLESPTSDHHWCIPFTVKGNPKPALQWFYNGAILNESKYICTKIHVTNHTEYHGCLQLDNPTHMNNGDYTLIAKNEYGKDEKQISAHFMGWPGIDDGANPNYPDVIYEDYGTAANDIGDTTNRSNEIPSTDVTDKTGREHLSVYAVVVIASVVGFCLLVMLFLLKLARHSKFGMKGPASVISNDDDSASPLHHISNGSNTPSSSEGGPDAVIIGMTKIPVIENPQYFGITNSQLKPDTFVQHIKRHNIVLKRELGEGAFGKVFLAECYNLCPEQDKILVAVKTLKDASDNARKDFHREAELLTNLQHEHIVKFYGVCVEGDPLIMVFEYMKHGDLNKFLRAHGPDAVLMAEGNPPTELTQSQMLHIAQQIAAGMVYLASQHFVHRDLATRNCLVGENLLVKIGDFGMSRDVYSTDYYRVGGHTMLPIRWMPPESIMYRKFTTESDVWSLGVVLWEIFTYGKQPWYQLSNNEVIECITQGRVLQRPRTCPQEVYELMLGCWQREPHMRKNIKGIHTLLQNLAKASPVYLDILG
Sequence of CDK6/cyclinD3 (Q00534 whole entry): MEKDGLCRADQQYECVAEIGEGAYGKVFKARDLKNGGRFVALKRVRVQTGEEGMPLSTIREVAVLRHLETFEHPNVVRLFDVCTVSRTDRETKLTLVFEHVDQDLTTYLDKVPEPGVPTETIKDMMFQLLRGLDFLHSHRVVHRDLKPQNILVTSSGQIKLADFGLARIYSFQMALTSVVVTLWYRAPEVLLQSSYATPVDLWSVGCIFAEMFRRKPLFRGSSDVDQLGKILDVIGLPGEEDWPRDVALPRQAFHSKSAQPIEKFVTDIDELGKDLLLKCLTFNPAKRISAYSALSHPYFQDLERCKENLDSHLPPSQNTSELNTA
Sequence of CDK6/cyclinD3 (P30281 whole entry partner): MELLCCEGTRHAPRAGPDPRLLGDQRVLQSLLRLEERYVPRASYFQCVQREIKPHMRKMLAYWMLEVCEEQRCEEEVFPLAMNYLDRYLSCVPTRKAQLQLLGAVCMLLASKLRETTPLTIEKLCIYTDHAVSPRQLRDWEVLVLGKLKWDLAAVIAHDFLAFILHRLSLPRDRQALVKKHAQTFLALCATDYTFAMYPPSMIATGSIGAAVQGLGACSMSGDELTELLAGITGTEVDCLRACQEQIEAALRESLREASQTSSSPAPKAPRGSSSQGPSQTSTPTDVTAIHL

`COc1cc(O)c(CC=C(C)C)c(O)c1C(=O)/C=C/c1ccc(O)cc1` [Xanthohumol, xanthohumol] was tested, and the “Kinase activity, % of Control” value (TrkB; 1 ug/ml) was 95 % of Control, the “Kinase activity, % of Control” value (TrkB; 5 ug/ml) was 89 % of Control and the “Kinase activity, % of Control” value (TrkB; 25 ug/ml) was 58 % of Control. The “Kinase activity, % of Control” value (TrkB; 50 ug/ml) was 3 % of Control, the “Kinase activity, % of Control” value (CDK6/cyclinD3; 1 ug/ml) was 110 % of Control and the “Kinase activity, % of Control” value (CDK6/cyclinD3; 5 ug/ml) was 79 % of Control. For the same compound, the “Kinase activity, % of Control” value (CDK6/cyclinD3; 25 ug/ml) was 23 % of Control, the “Kinase activity, % of Control” value (CDK6/cyclinD3; 50 ug/ml) was 7 % of Control and the “Kinase activity, % of Control” value (EphA8; 1 ug/ml) was 103 % of Control. The “Kinase activity, % of Control” value (EphA8; 5 ug/ml) was 92 % of Control, the “Kinase activity, % of Control” value (EphA8; 25 ug/ml) was 29 % of Control and the “Kinase activity, % of Control” value (EphA8; 50 ug/ml) was 19 % of Control. For the same compound, the “Kinase activity, % of Control” value (Fer; 1 ug/ml) was 55 % of Control, the “Kinase activity, % of Control” value (Fer; 5 ug/ml) was 20 % of Control and the “Kinase activity, % of Control” value (Fer; 25 ug/ml) was 10 % of Control. The “Kinase activity, % of Control” value (Fer; 50 ug/ml) was 1 % of Control, the “Kinase activity, % of Control” value (TSSK2; 1 ug/ml) was 102 % of Control and the “Kinase activity, % of Control” value (TSSK2; 5 ug/ml) was 95 % of Control. For the same compound, the “Kinase activity, % of Control” value (TSSK2; 25 ug/ml) was 61 % of Control, the “Kinase activity, % of Control” value (TSSK2; 50 ug/ml) was 48 % of Control and the “Kinase activity, % of Control” value (Syk; 1 ug/ml) was 95 % of Control. The “Kinase activity, % of Control” value (Syk; 5 ug/ml) was 60 % of Control, the “Kinase activity, % of Control” value (Syk; 25 ug/ml) was 32 % of Control and the “Kinase activity, % of Control” value (Syk; 50 ug/ml) was 17 % of Control. The “Kinase activity, % of Control” value (CK1δ; 5 ug/ml) was 32 % of Control, the “Kinase activity, % of Control” value (CK1δ; 25 ug/ml) was 16 % of Control and the “Kinase activity, % of Control” value (CK1δ; 50 ug/ml) was 12 % of Control. For the same compound, the “Kinase activity, % of Control” value (MSK2; 1 ug/ml) was 126 % of Control, the “Kinase activity, % of Control” value (MSK2; 5 ug/ml) was 61 % of Control and the “Kinase activity, % of Control” value (MSK2; 25 ug/ml) was 8 % of Control. For the same compound, the “Kinase activity, % of Control” value (MSK2; 50 ug/ml) was 19 % of Control, the “Kinase activity, % of Control” value (PKBα; 1 ug/ml) was 102 % of Control and the “Kinase activity, % of Control” value (PKBα; 25 ug/ml) was 18 % of Control. The “Kinase activity, % of Control” value (PKBα; 50 ug/ml) was 5 % of Control, the “Kinase activity, % of Control” value (Ros; 1 ug/ml) was 101 % of Control and the “Kinase activity, % of Control” value (Ros; 5 ug/ml) was 99 % of Control. For the same compound, the “Kinase activity, % of Control” value (Ros; 25 ug/ml) was 85 % of Control, the “Kinase activity, % of Control” value (Ros; 50 ug/ml) was 94 % of Control and the “Kinase activity, % of Control” value (Lyn; 1 ug/ml) was 97 % of Control. The “Kinase activity, % of Control” value (Lyn; 5 ug/ml) was 40 % of Control, the “Kinase activity, % of Control” value (Lyn; 25 ug/ml) was 4 % of Control and the “Kinase activity, % of Control” value (Lyn; 50 ug/ml) was 2 % of Control. The “Kinase activity, % of Control” value (PKA; 1 ug/ml) was 105 % of Control, the “Kinase activity, % of Control” value (PKA; 5 ug/ml) was 109 % of Control and the “Kinase activity, % of Control” value (PKA; 25 ug/ml) was 98 % of Control. For the same compound, the “Kinase activity, % of Control” value (PKA; 50 ug/ml) was 21 % of Control, the “Kinase activity, % of Control” value (IR; 1 ug/ml) was 120 % of Control and the “Kinase activity, % of Control” value (IR; 5 ug/ml) was 108 % of Control. The “Kinase activity, % of Control” value (IR; 50 ug/ml) was 103 % of Control, the “Kinase activity, % of Control” value (CK1γ3; 1 ug/ml) was 98 % of Control and the “Kinase activity, % of Control” value (CK1γ3; 5 ug/ml) was 51 % of Control. The “Kinase activity, % of Control” value (CK1γ3; 25 ug/ml) was 22 % of Control and the “Kinase activity, % of Control” value (CK1γ3; 50 ug/ml) was 15 % of Control.

From US20080031982A1 (Metaproteomics, LLC, priority 2006, published 2008)
